{
  "source": "patent US20100331297A1",
  "about": "“MODULATION OF PROTEIN TRAFFICKING” (FOLDRX PHARMACEUTICALS, INC., priority 2007, published 2010)",
  "format_in_all_cases": "cell-based",
  "key": {"[1]": {"molecular_target": "T1, ΔF508 CFTR (Homo sapiens, UniProt P13569, DEL508-508)", "T1 sequence (P13569 with tags, fused parts or gaps DEL508-508)": "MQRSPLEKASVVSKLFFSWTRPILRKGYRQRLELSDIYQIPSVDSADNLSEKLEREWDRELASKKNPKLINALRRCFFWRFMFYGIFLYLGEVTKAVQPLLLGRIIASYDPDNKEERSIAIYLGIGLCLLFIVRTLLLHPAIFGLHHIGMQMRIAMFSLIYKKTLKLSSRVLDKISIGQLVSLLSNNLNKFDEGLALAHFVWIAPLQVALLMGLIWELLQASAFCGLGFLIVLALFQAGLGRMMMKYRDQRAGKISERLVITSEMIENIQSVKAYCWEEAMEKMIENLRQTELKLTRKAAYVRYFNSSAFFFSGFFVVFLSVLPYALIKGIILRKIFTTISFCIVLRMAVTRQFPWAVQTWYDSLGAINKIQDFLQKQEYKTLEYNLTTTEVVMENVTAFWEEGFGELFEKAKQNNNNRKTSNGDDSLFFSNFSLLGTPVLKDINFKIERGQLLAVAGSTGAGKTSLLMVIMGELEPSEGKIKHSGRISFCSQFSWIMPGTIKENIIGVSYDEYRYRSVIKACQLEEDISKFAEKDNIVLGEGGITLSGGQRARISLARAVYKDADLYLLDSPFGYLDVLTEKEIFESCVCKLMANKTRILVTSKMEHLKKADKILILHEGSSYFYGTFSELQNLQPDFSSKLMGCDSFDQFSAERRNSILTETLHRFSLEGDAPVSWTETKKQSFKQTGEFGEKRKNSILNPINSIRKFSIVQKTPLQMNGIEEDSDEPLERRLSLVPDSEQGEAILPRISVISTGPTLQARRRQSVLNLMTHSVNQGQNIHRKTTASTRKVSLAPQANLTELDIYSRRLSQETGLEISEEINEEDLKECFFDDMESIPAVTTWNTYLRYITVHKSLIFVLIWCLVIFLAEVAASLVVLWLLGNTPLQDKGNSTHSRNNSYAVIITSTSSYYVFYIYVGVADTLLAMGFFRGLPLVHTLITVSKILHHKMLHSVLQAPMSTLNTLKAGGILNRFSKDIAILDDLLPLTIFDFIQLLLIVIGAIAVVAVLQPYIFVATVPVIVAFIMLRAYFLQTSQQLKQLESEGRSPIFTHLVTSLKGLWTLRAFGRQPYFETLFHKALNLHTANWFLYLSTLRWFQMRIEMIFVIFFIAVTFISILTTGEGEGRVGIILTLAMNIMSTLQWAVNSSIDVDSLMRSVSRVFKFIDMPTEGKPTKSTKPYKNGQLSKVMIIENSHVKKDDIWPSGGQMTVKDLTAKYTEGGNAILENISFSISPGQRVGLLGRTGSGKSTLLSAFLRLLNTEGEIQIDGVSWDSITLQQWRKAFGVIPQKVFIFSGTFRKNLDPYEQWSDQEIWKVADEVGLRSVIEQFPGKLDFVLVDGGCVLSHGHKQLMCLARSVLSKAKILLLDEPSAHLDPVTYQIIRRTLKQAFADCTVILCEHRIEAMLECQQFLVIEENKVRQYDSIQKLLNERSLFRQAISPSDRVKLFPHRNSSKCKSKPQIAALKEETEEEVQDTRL", "experiment": "Stabilization of ΔF508 CFTR in CFBE cells (western blot, densitometry)", "conditions": "16 hours at 37° C.", "description": "In addition, efficacy of a compound can be evaluated before (first in time), concomitantly or subsequently to the above-mentioned test modalities by monitoring, e.g., (i) modulation (e.g., an improvement) of the stability of a trafficking defective protein, (ii) modulation (e.g., an improvement) of proper, physiological trafficking of the trafficking defective protein, or (iii) modulation (e.g., a restoration) in one or more functions of a trafficking defective protein. For example, in some cases, proteins (e.g., protein mutants such as ΔF508 CFTR) are prematurely degraded. Thus, the efficacy of a given compound to modulate protein trafficking can be determined by monitoring the stability of a protein in the presence as compared to the absence of the compound. For example, cells expressing a trafficking defective protein (e.g., expressing endogenously or expressing an exogenous transgene encoding a trafficking defective protein such as ΔF508 CFTR) can be cultured in the presence or absence of a compound for at least 1 hour (e.g., at least 2 hours, at least 4 hours, at least 6 hours, at least 8 hours, at least 12 hours, at least 16 hours, at least 24 hours, at least 36 hours, or at least 48 hours). Cell lysates can be prepared from the different populations of cells, suspended in Laemmli buffer (with or without reducing agent) and subjected to sodium dodecyl sulfate-polyacrylamide gel electrophoresis (SDS-PAGE). Using antibodies that specifically recognize the trafficking defective protein (e.g., CFTR), the amount of the protein in the presence as compared to in the absence of a compound can be determined by western or dot-blotting techniques. […] Where a modified state (e.g., glycosylation or phosphorylation) of a protein is indicative of increased stability, a change in the modified state of a protein can also be used to determine if a compound stabilizes the trafficking defective protein. For example, the amount of glycosylated CFTR (e.g., ΔF508 CFTR) can be assessed in the presence as compared to the absence of a compound.\nThe compounds can be tested for their ability to stabilize ΔF508 CTFR. CFBE cells, a cell line generated by transformation of cystic fibrosis tracheo-bronchial cells (ΔF508 CTFR homozygous) with SV40 (Bruscia et al. (2002) Gene Ther. 9(11):683-685), can be cultured with 10 μM of the selected compounds, or 10 μM VRT-325 for 16 hours at 37° C. (VRT-325 is described in, e.g., Van Goor et al. (2006) Am. J. Physiol. Lung Cell Mol. Physiol. 290:L1117-L1130). A population of cells can also be cultured with the dimethyl sulfoxide (DMSO) solvent as a control.\nFollowing incubation, cells were lysed, solubilized in Laemmli buffer, and subjected to SDS-PAGE. CFTR protein were visualized by western blotting using an antibody specific for CFTR. Culturing CFBE cells with compound 25 (see Table I for structure) increased the amount of cellular ΔF508 CFTR protein.\nThe effect of different concentrations of compound 25 on ΔF508 CFTR was tested in a dose response experiment. […] The relative amounts of glysosylated and unglycosylated ΔF508 CFTR protein were visualized by western blotting (FIG. 10A), and the band intensities wer quantitated by scanning and densitometry (FIG. 10B). […] The relative amounts of glysosylated and unglycosylated ΔF508 CFTR protein were visualized by western blotting (FIG. 11A), and the band intensities wer quantitated by scanning and densitometry (FIG. 11B)."}, "[2]": {"molecular_target": "T1, ΔF508 CFTR", "experiment": "Ussing chamber assay, short-circuit current in FRT cells stably expressing ΔF508 CFTR", "parameters": "expressed in transfected cells; host or cells: Fischer rat thyroid (FRT) cells", "conditions": "FRT ΔF508 CFTR monolayers treated 24 hours; forskolin, isobutylmethylxanthine, genistein", "procedure": "Ussing Chamber Assay: Fischer rat thyroid (FRT) cells stably expressing ΔF508 CFTR (cystic fibrosis transmembrane conductance regulator) were cultured as previously described in Am J. Physiol. (1994) 266 L405-413. Monolayers of cells were grown on Snapwell inserts (Corning Inc.) at the air/liquid interface. The monolayers were treated with compound for 24 hours. The inserts are mounted in Ussing chambers (Harvard Apparatus) and short-circuit currents are measured using a voltage clamp apparatus (WPI, Inc.). A mucosal to serosal gradient in chloride concentration is imposed and the basolateral membrane is permeabilized using amphotericin. Short circuit currents are measured upon addition of the agonists forskolin, isobutylmethylxanthine, and genistein to maximally activate CFTR."}, "[3]": {"molecular_target": "T1, ΔF508 CFTR", "experiment": "Corrector activity, YFP halide (iodide) quenching assay in FRT cells expressing ΔF508 CFTR", "parameters": "expressed in transfected cells; host or cells: Fischer rat thyroid (FRT) cells", "conditions": "Corrector EC50, FRT cells ΔF508 CFTR/YFP, 24 hours with compound at 37° C., forskolin and genistein", "how_it_was_run": "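FRT cells co-expressing ΔF508 CFTR and halide-sensitive YFP were incubated 24 h at 37° C with compounds, then stimulated 30 min at 37° C in PBS with forskolin and genistein. Endpoint fluorescence after iodide injection was normalized to initial reading; EC50 from 4-parameter fit with bottom constrained to DMSO control.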"}},
  "data": [
    {"smiles": "CC(C)(C)n1nc(-c2ccc(Cl)cc2)c2c(N)ncnc21", "note": "[compound 25]", "values": [
      {"measurement": "amount of cellular ΔF508 CFTR protein (western blot)", "setting": "[1]; 10 μM", "result": "increased"},
      {"measurement": "amount of the glycosylated form of ΔF508 CFTR (western blot)", "setting": "[1]; 10 μM", "result": "increased"},
      {"measurement": "effect on stabilizing ΔF508 CFTR relative to VRT-325", "setting": "[1]; 10 μM", "result": "comparable or better"},
      {"measurement": "glycosylated (Band B) ΔF508 CFTR protein vs absence of compound, dose response", "setting": "[1]; 1.25-10 μM (compound 25), 1-10 μM (compound 5)", "result": "increased"},
      {"measurement": "short circuit current after the addition of all three agonists", "setting": "[2]", "result": "~65", "unit": "uA/cm^2"},
      {"measurement": "EC50", "setting": "[3]", "result": "2 to 5", "unit": "µM"}
    ]}
  ]
}
